# Assay results from patent publication US10239925B2, “Peptides and combination of peptides for use in immunotherapy against ovarian cancer and other cancers” (IMMATICS BIOTECHNOLOGIES GMBH, priority 2015, dated 2019).
# Columns and labels:
# CD8+ T cells = assay: In vitro immunogenicity: priming of CD8+ T cells with aAPCs loaded with peptide/MHC and anti-CD28, multimer readout; type: cell-based, human; conditions: for Wells positive [%]: HLA-A*02 restricted peptides, percentage of positive wells (among evaluable); for donors: percentage of positive donors; for wells: percentage of positive wells
# Protocol: In an aspect, the peptides are pre-screened for immunogenicity before being included in the warehouse. By way of example, and not limitation, the immunogenicity of the peptides included in the warehouse is determined by a method comprising in vitro T-cell priming through repeated stimulations of CD8+ T cells from healthy donors with artificial antigen presenting cells loaded with peptide/MHC complexes and anti-CD28 antibody.
# FIGS. 3A to 3F show exemplary immunogenicity data: flow cytometry results after peptide-specific multimer staining. CD8+ T cells were primed using artificial APCs coated with anti-CD28 mAb and HLA-A*02 in complex with SeqID No 662 (FIG. 3A, left panel), SeqID No 663 (FIG. 3B, left panel), SeqID No 11 peptide (FIG. 3C, left panel), SeqID No 198 peptide (FIG. 3D, left panel), SeqID No 587 peptide (FIG. 3E, left panel) and SeqID No 427 peptide (FIG. 3F, left panel), respectively. After three cycles of stimulation, the detection of peptide-reactive cells was performed by 2D multimer staining with A*02/SeqID No 662 (FIG. 3A), A*02/SeqID No 663 (FIG. 3B), A*02/SeqID No 11 (FIG. 3C), A*02/SeqID No 198 (FIG. 3D), A*02/SeqID No 587 (FIG. 3E) or A*02/SeqID No 427 (FIG. 3F). Right panels (FIGS. 3A, 3B, 3C, 3D, 3E, and 3F) show control staining of cells stimulated with irrelevant A*02/peptide complexes. Viable singlet cells were gated for CD8+ lymphocytes. Boolean gates helped excluding false-positive events detected with multimers specific for different peptides. Frequencies of specific multimer+ cells among CD8+ lymphocytes are indicated.
# In Vitro Immunogenicity for MHC Class I Presented Peptides
# In order to obtain information regarding the immunogenicity of the TUMAPs of the present invention, the inventors performed investigations using an in vitro T-cell priming assay based on repeated stimulations of CD8+ T cells with artificial antigen presenting cells (aAPCs) loaded with peptide/MHC complexes and anti-CD28 antibody.
# In Vitro Priming of CD8+ T Cells
# In order to perform in vitro stimulations by artificial antigen presenting cells loaded with peptide-MHC complex (pMHC) and anti-CD28 antibody, the inventors first isolated CD8+ T cells from fresh HLA-A*02 leukapheresis products via positive selection using CD8 microbeads (Miltenyi Biotec, Bergisch-Gladbach, Germany) of healthy donors obtained from the University clinics Mannheim, Germany, after informed consent.
# PBMCs and isolated CD8+ lymphocytes were incubated in T-cell medium (TCM) until use consisting of RPMI-Glutamax (Invitrogen, Karlsruhe, Germany) supplemented with 10% heat inactivated human AB serum (PAN-Biotech, Aidenbach, Germany), 100 U/ml Penicillin/100 μg/ml Streptomycin (Cambrex, Cologne, Germany), 1 mM sodium pyruvate (CC Pro, Oberdorla, Germany), 20 μg/ml Gentamycin (Cambrex). 2.5 ng/ml IL-7 (PromoCell, Heidelberg, Germany) and 10 U/ml IL-2 (Novartis Pharma, Nümberg, Germany) were also added to the TCM at this step.
# Generation of pMHC/anti-CD28 coated beads, T-cell stimulations and readout was performed in a highly defined in vitro system using four different pMHC molecules per stimulation condition and 8 different pMHC molecules per readout condition.
# The purified co-stimulatory mouse IgG2a anti human CD28 Ab 9.3 (Jung et al., 1987) was chemically biotinylated using Sulfo-N-hydroxysuccinimidobiotin as recommended by the manufacturer (Perbio, Bonn, Germany). Beads used were 5.6 μm diameter streptavidin coated polystyrene particles (Bangs Laboratories, Illinois, USA).
# pMHC used for positive and negative control stimulations were A*0201/MLA-001 (peptide […] (SEQ ID NO. 664) from modified Melan-A/MART-1) and A*0201/DDX5-001 ([…] from DDX5, SEQ ID NO. 665), respectively.
# 800.000 beads/200 μl were coated in 96-well plates in the presence of 4×12.5 ng different biotin-pMHC, washed and 600 ng biotin anti-CD28 were added subsequently in a volume of 200 μl. […]
# HLA-A*02:01 = HLA-A*02:01 (Homo sapiens, UniProt P04439, D140Y/D185E/D98H/E176V/E277Q/G131W/G231S/I119V/I121R/I166T/I218V/L300P/L318F/N151K/N90K/P208A/P217A/Q86G/Q94H/R138H/R169H/T345S); assay: MHC binding assay (UV-ligand exchange, anti-β2m ELISA, peptide exchange yield); conditions: binding to HLA-A*02:01
# How it was run: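 Yield of stabilized complexes quantified via the β2m light chain in an ELISA (streptavidin capture, 100-fold diluted monomers, HRP anti-β2m 2 ug/ml at 37 °C, TMB, A450). The complexes come from UV-triggered replacement of a photocleavable ligand by the candidate peptide.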
Substance,"Peptide exchange (MHC class I binding score, peptide exchange yield) (HLA-A*02:01)",Wells positive [%] (CD8+ T cells),donors (CD8+ T cells),wells (CD8+ T cells)
2 (SLLEADPFL; listed as Homo sapiens) [compound 2],“+++” (>50 = +++),“+” (<20% = +),–,–
3 (SLASKLTTL; listed as Homo sapiens) [compound 3],“++++” (>75% = ++++),“+” (<20% = +),–,–
5 (HLTEVYPEL; listed as Homo sapiens) [compound 5],“+++” (>50 = +++),“+++” (50% - 69% = +++),–,–
7 (SLVGLLLYL; listed as Homo sapiens) [compound 7],“++++” (>75% = ++++),“++” (20% - 49% = ++),–,–
8 (FTLGNVVGMYL; listed as Homo sapiens) [compound 8],“++++” (>75% = ++++),“+” (<20% = +),–,–
11 (KIFEMLEGV; listed as Homo sapiens) [compound 11],“+++” (>50 = +++),“+” (<20% = +),–,–
17 (GLLPGDRLVSV; listed as Homo sapiens) [compound 17],“+++” (>50 = +++),“++” (20% - 49% = ++),–,–
19 (FMVDNEAIYDI; listed as Homo sapiens) [compound 19],“++++” (>75% = ++++),“++” (20% - 49% = ++),–,–
36 (YVLEDLEVTV; listed as Homo sapiens) [compound 36],“++” (>20% = ++),“+” (<20% = +),–,–
38 (FLLEDDIHVS; listed as Homo sapiens) [compound 38],“+++” (>50 = +++),“+” (<20% = +),–,–
40 (TLLVKVFSV; listed as Homo sapiens) [compound 40],“+++” (>50 = +++),“++” (20% - 49% = ++),–,–
648 (LLWGNAIFL; listed as Homo sapiens) [compound 648],–,–,+++ (50% - 69% = +++),++ (20% - 49% = ++)
652 (TLWYRAPEV; listed as Homo sapiens) [compound 652],–,–,++++ (≥70% = ++++),+++ (50% - 69% = +++)
659 (ILFPDIIARA; listed as Homo sapiens) [compound 659],–,–,+++ (50% - 69% = +++),+ (<20% = +)
662 (KIQEILTQV; listed as Homo sapiens) [compound 662],–,–,+++ (50% - 69% = +++),+ (<20% = +)
663 (KIQEMQHFL; listed as Homo sapiens) [compound 663],–,–,+++ (50% - 69% = +++),+ (<20% = +)

# Further lines, with some results ahead:
"Peptide exchange (MHC class I binding score, peptide exchange yield) (HLA-A*02:01)",Substance,Wells positive [%] (CD8+ T cells),donors (CD8+ T cells),wells (CD8+ T cells)
“+++” (>50 = +++),48 (ALAELYEDEV; listed as Homo sapiens) [compound 48],“+” (<20% = +),–,–
“+++” (>50 = +++),49 (YLPAVFEEV; listed as Homo sapiens) [compound 49],“++” (20% - 49% = ++),–,–
“++++” (>75% = ++++),56 (KLYEGIPVLL; listed as Homo sapiens) [compound 56],“+” (<20% = +),–,–
“++++” (>75% = ++++),60 (SLTIDGIYYV; listed as Homo sapiens) [compound 60],“++++” (≥70% = ++++),–,–
“++++” (>75% = ++++),61 (FLQGYQLHL; listed as Homo sapiens) [compound 61],“++” (20% - 49% = ++),–,–
“+++” (>50 = +++),79 (SLFIGEKAVLL; listed as Homo sapiens) [compound 79],“+” (<20% = +),–,–
“++++” (>75% = ++++),108 (ALFPGVALLLA; listed as Homo sapiens) [compound 108],“++” (20% - 49% = ++),–,–
“+++” (>50 = +++),113 (GLLPTPLFGV; listed as Homo sapiens) [compound 113],“+” (<20% = +),–,–
“+++” (>50 = +++),118 (KLIDNNINV; listed as Homo sapiens) [compound 118],“+” (<20% = +),–,–
“++” (>20% = ++),141 (YLDFSNNRL; listed as Homo sapiens) [compound 141],“+” (<20% = +),–,–
“++++” (>75% = ++++),143 (LLLDITPEI; listed as Homo sapiens) [compound 143],“+” (<20% = +),–,–
“+++” (>50 = +++),150 (RLWEEGEELEL; listed as Homo sapiens) [compound 150],“+” (<20% = +),–,–
“+++” (>50 = +++),152 (ILFEDIFDV; listed as Homo sapiens) [compound 152],“++” (20% - 49% = ++),–,–
“++” (>20% = ++),157 (SLNDEVPEV; listed as Homo sapiens) [compound 157],“+++” (50% - 69% = +++),–,–
“+++” (>50 = +++),166 (YLNHLEPPV; listed as Homo sapiens) [compound 166],“++++” (≥70% = ++++),–,–
“++” (>20% = ++),191 (LLQEGQALEYV; listed as Homo sapiens) [compound 191],“+++” (50% - 69% = +++),–,–
“+++” (>50 = +++),198 (KTINKVPTV; listed as Homo sapiens) [compound 198],“++” (20% - 49% = ++),–,–
“+++” (>50 = +++),199 (ALQDVPLSSV; listed as Homo sapiens) [compound 199],“+” (<20% = +),–,–
“+++” (>50 = +++),215 (QLINHLHAV; listed as Homo sapiens) [compound 215],“++” (20% - 49% = ++),–,–
“++” (>20% = ++),242 (AIAYILQGV; listed as Homo sapiens) [compound 242],“+++” (50% - 69% = +++),–,–
“+++” (>50 = +++),635 (SLDSTLHAV; listed as Homo sapiens) [compound 635],–,–,–
